Assay results from ChEMBL document CHEMBL1147856, “Synthesis, determination of the absolute configuration of tonkinelin, and inhibitory action with bovine heart mitochondrial complex I” (Bioorg Med Chem, 2007).
pIC50: −log10 of the molar value.

Assay: Inhibition of NADH-ubiquinone oxidoreductase activity in bovine heart submitochondrial particles
Set-up: species or system Bos taurus

SMILES	pIC50
CCCCCCCCCCCC[C@H](O)[C@@H]1CC[C@H]([C@H](O)CCCCCCCCCCCCC2=C[C@H](C)OC2=O)O1 [CIS-SOLAMIN]	8.59
CCCCCCCCCC[C@@H](O)[C@@H]1CC[C@@H]([C@@H]2CC[C@@H]([C@H](O)CCCCCCCCCC(O)CC3=CC(C)OC3=O)O2)O1 (stereo not given in full) [BULLATACIN]	9.08
CCCCCCCCCCCC[C@H](O)[C@@H](O)CC[C@@H](O)[C@H](O)CCCCCCCCCCCCC1=C[C@H](C)OC1=O [DIHYDROXY-COHIBIN A]	7.70

The remaining lines, values ahead:

pIC50	SMILES
6.16	CCCCCCCCCCCCCCCC[C@@H](O)[C@H](O)CCCCCCCCCCCCCCC1=C[C@H](C)OC1=O [TONKINELIN]
6.24	CCCCCCCCCCCCCCCC[C@H](O)[C@@H](O)CCCCCCCCCCCCCCC1=C[C@H](C)OC1=O
